{
  "source": "patent US7223865B2",
  "about": "“Chromogenic compounds, and use thereof as enzyme substrates” (Biomerieux, priority 2003, dated 2007)",
  "type_in_all_cases": "cell-based",
  "key": {"Candida glabrata (051)": {"system": "Candida glabrata (051)", "assay": "L-proline-aminopeptidase activity on gelled medium, Example 6", "settings": "0.3 g/l, 24 hours", "protocol": "(§1) A gelled medium comprising L-prolyl-9-(4-amino-phenyl)acridine (hereinafter referred to as L-Pro-4-APA) is prepared as follows: 45 g of Sabouraud agar are added to 1 liter of distilled water and then autoclaved. This reaction medium comprises 0.3 g/l of L-Pro-APA also introduced by means of a stock solution in DMSO.\n(§2) Microorganisms derived from the applicant's collection were seeded onto this medium, by delimitation as three dials, using a suspension of 0.5 McFarland. The dishes were incubated at 37° C. for 24 hours. The colonies formed were examined visually after incubation for 24 hours. The color of these colonies was noted before and after the addition of a drop of acetic acid, hereinafter referred to as GAA (glacial acetic acid)."}, "Candida lusitaniae (045)": {"system": "Candida lusitaniae (045)", "assay": "L-proline-aminopeptidase activity on gelled medium, Example 6", "settings": "0.3 g/l, 24 hours", "protocol": "as §1, §2"}, "Candida albicans (138)": {"system": "Candida albicans (138)", "assay": "L-proline-aminopeptidase activity on gelled medium, Example 6", "settings": "0.3 g/l, 24 hours", "protocol": "as §1, §2"}, "[1]": {"system": "Candida parapsilosis (040)", "assay": "L-proline-aminopeptidase activity on gelled medium, Example 6", "settings": "0.3 g/l, 24 hours", "protocol": "as §1, §2"}, "[2]": {"system": "Candida guilliermondii (046)", "assay": "L-proline-aminopeptidase activity on gelled medium, Example 6", "settings": "0.3 g/l, 24 hours", "protocol": "as §1, §2"}, "Candida krusei (026)": {"system": "Candida krusei (026)", "assay": "L-proline-aminopeptidase activity on gelled medium, Example 6", "settings": "0.3 g/l, 24 hours", "protocol": "as §1, §2"}, "[3]": {"system": "Pseudomonas aeruginosa (165)", "assay": "β-alanine-aminopeptidase activity on gelled medium, Example 5", "settings": "0.3 g/l", "protocol": "(§3) A gelled medium comprising 300 mg/l of β-Ala-4-AP-10-MA is prepared as follows: 46.37 g of Columbia agar are added to 1 liter of distilled water and then autoclaved, and the substrate is then introduced by means of a stock solution in DMSO. Microorganisms derived from the applicant's collection were seeded onto the medium, by delimitation as three dials, using a suspension of 0.5 McFarland. The dishes were incubated at 37° C. for 48 hours. The colonies formed were examined visually after incubation for 24 and 48 hours. The color of these colonies and also the intensity of this color were noted."}, "Pseudomonas putida (028)": {"system": "Pseudomonas putida (028)", "assay": "β-alanine-aminopeptidase activity on gelled medium, Example 5", "settings": "0.3 g/l", "protocol": "as §3"}, "Escherichia coli (032)": {"system": "Escherichia coli (032)", "assay": "β-alanine-aminopeptidase activity on gelled medium, Example 5", "settings": "0.3 g/l", "protocol": "as §3"}, "[4]": {"system": "Pseudomonas stutzeri (073)", "assay": "β-alanine-aminopeptidase activity on gelled medium, Example 5", "settings": "0.3 g/l", "protocol": "as §3"}, "[5]": {"system": "Klebsiella pneumoniae (023)", "assay": "β-alanine-aminopeptidase activity on gelled medium, Example 5", "settings": "0.3 g/l", "protocol": "as §3"}, "[6]": {"system": "Acinetobacter calcoaceticus (034)", "assay": "β-alanine-aminopeptidase activity on gelled medium, Example 5", "settings": "0.3 g/l", "protocol": "as §3"}, "[7]": {"system": "Pseudomonas fluorescens (016)", "assay": "β-alanine-aminopeptidase activity on gelled medium, Example 5", "settings": "0.3 g/l", "protocol": "as §3"}, "[8]": {"system": "Pseudomonas aeruginosa (052)", "assay": "β-alanine-aminopeptidase activity on gelled medium, Example 5", "settings": "0.3 g/l", "protocol": "as §3"}, "[9]": {"system": "Burkholderia cepacia (004)", "assay": "β-alanine-aminopeptidase activity on gelled medium, Example 5", "settings": "0.3 g/l", "protocol": "as §3"}},
  "data": [
    {"smiles": "O=C(Nc1ccc(-c2c3ccccc3nc3ccccc23)cc1)[C@@H]1CCCN1", "note": "[L-Pro-4-APA, L-Prolyl-9-(4-aminophenyl)acridine]", "values": [
      {"measurement": "Color", "setting": "Candida glabrata (051); after GAA", "value": "yellow"},
      {"measurement": "Intensity", "setting": "Candida glabrata (051); after GAA", "value": 3},
      {"measurement": "Color", "setting": "Candida glabrata (051); before GAA", "value": "yellow"},
      {"measurement": "Intensity", "setting": "Candida glabrata (051); before GAA", "value": 2},
      {"measurement": "Color", "setting": "Candida lusitaniae (045); after GAA", "value": "no growth"},
      {"measurement": "Color", "setting": "Candida lusitaniae (045); before GAA", "value": "no growth"},
      {"measurement": "Color", "setting": "Candida albicans (138); after GAA", "value": "yellow"},
      {"measurement": "Intensity", "setting": "Candida albicans (138); after GAA", "value": 3},
      {"measurement": "Color", "setting": "Candida albicans (138); before GAA", "value": "yellow"},
      {"measurement": "Intensity", "setting": "Candida albicans (138); before GAA", "value": 2},
      {"measurement": "Color", "setting": "[1]; after GAA", "value": "yellow"},
      {"measurement": "Intensity", "setting": "[1]; after GAA", "value": 2},
      {"measurement": "Color", "setting": "[1]; before GAA", "value": "white"},
      {"measurement": "Color", "setting": "[2]; after GAA", "value": "no growth"},
      {"measurement": "Color", "setting": "[2]; before GAA", "value": "no growth"},
      {"measurement": "Color", "setting": "Candida krusei (026); after GAA", "value": "yellow"},
      {"measurement": "Intensity", "setting": "Candida krusei (026); after GAA", "value": 3},
      {"measurement": "Color", "setting": "Candida krusei (026); before GAA", "value": "yellow"},
      {"measurement": "Intensity", "setting": "Candida krusei (026); before GAA", "value": 1}
    ]},
    {"smiles": "C[n+]1c2ccccc2c(-c2ccc(NC(=O)CCN)cc2)c2ccccc21.[Cl-]", "note": "[β-Ala-4-AP-10-MA, β-alanyl-9-(4-aminophenyl)-10-methylacridinium chloride]", "values": [
      {"measurement": "Color", "setting": "[3]; 24 H", "value": "orange"},
      {"measurement": "Intensity", "setting": "[3]; 24 H", "value": 1.5},
      {"measurement": "Color", "setting": "[3]; 48 h", "value": "orange"},
      {"measurement": "Intensity", "setting": "[3]; 48 h", "value": 3},
      {"measurement": "Color", "setting": "Pseudomonas putida (028); 24 H", "value": "colorless"},
      {"measurement": "Color", "setting": "Pseudomonas putida (028); 48 h", "value": "colorless"},
      {"measurement": "Color", "setting": "Escherichia coli (032); 24 H", "value": "colorless"},
      {"measurement": "Color", "setting": "Escherichia coli (032); 48 h", "value": "colorless"},
      {"measurement": "Color", "setting": "[4]; 24 H", "value": "inhibited"},
      {"measurement": "Color", "setting": "[4]; 48 h", "value": "colorless"},
      {"measurement": "Color", "setting": "[5]; 24 H", "value": "colorless"},
      {"measurement": "Color", "setting": "[5]; 48 h", "value": "colorless"},
      {"measurement": "Color", "setting": "[6]; 24 H", "value": "colorless"},
      {"measurement": "Color", "setting": "[6]; 48 h", "value": "colorless"},
      {"measurement": "Color", "setting": "[7]; 24 H", "value": "inhibited"},
      {"measurement": "Color", "setting": "[7]; 48 h", "value": "colorless"},
      {"measurement": "Color", "setting": "[8]; 24 H", "value": "orange"},
      {"measurement": "Intensity", "setting": "[8]; 24 H", "value": 2},
      {"measurement": "Color", "setting": "[8]; 48 h", "value": "orange"},
      {"measurement": "Intensity", "setting": "[8]; 48 h", "value": 3},
      {"measurement": "Color", "setting": "[9]; 24 H", "value": "colorless"},
      {"measurement": "Color", "setting": "[9]; 48 h", "value": "colorless"}
    ]}
  ]
}
